Test results: ChEMBL document CHEMBL3885861, “Open TG-GATES”

Species on record: Rattus norvegicus
Experiment: Open TG-GATES - Regimen: Single
Assay type: toxicity, organism-based, Sprague-Dawley
Set-up: regimen Single, gender Male, age 6 weeks
Settings: in vivo, iv, 0 mg/kg, route intravenous injection, dose level Control; for APTT / Bas / Eos / Fbg / Hb / Ht / Lym / MCH / MCHC / MCV / Mono / Neu / PT / Plat / RBC / Ret / WBC: tissue Blood; for KIDNEY_L / KIDNEY_R / KIDNEY_TOTAL: tissue Kidney; for LIVER: tissue Liver; for A/G / ALP / ALT / AST / BUN / CRE / Ca / Cl / DBIL / GLC / IP / K / LDH / Na / PL / RALB / TBIL / TC / TG / TP / gamma-GTP: tissue Plasma

Q: With `C[C@@H]1[C@H](O)[C@@H](C)/C=C/C=C/C=C/C=C/C=C/C=C/C=C/[C@H](O[C@@H]2O[C@H](C)[C@@H](O)[C@H](N)[C@@H]2O)C[C@@H]2O[C@](O)(C[C@@H](O)C[C@@H](O)[C@H](O)CC[C@@H](O)C[C@@H](O)CC(=O)O[C@H]1C)C[C@H](O)[C@H]2C(=O)O` [AMPHOTERICIN B] as the molecule, how does the TERMINAL_BW (3 h) read?
A: The TERMINAL_BW was 219.1 g.

Q: What about the APTT (3 h) of the same molecule?
A: The APTT was 17.6 s.

Q: What about the Bas (3 h) of the same molecule?
A: The Bas was 0%.

Q: And the Eos (3 h)?
A: The Eos was 0.6%.

Q: And the Fbg (3 h)?
A: The Fbg was 275.4 mg/dL.

Q: And the Hb (3 h)?
A: Its Hb is 13.2 g/dL.

Q: What about the Ht (3 h) of the same molecule?
A: Its Ht is 39.1%.

Q: What about the Lym (3 h) of the same molecule?
A: The Lym was 78.4%.

Q: What about the MCH (3 h) of the same molecule?
A: Its MCH is 20.8 pg.

Q: And the MCHC (3 h)?
A: The MCHC was 33.9%.

Q: What about the MCV (3 h) of the same molecule?
A: The MCV was 61.3 fL.

Q: And the Mono (3 h)?
A: Its Mono is 2.6%.

Q: And the Neu (3 h)?
A: The Neu was 17.2%.

Q: And the PT (3 h)?
A: The PT was 13.1 s.

Q: What about the Plat (3 h) of the same molecule?
A: Its Plat is 131.5 x10_4/uL.

Q: And the RBC (3 h)?
A: The RBC was 638.4 x10_4/ul.

Q: What about the Ret (3 h) of the same molecule?
A: The Ret was 7%.

Q: And the WBC (3 h)?
A: Its WBC is 102.7 x10_2/uL.

Q: And the KIDNEY_L (3 h)?
A: The KIDNEY_L was 0.9 g.

Q: What about the KIDNEY_R (3 h) of the same molecule?
A: The KIDNEY_R was 1 g.

Q: What about the KIDNEY_TOTAL (3 h) of the same molecule?
A: Its KIDNEY_TOTAL is 1.9 g.

Q: And the LIVER (3 h)?
A: Its LIVER is 9.9 g.

Q: What about the A/G (3 h) of the same molecule?
A: Its A/G is 0.8.

Q: What about the ALP (3 h) of the same molecule?
A: The ALP was 1671 IU/L.

Q: What about the ALT (3 h) of the same molecule?
A: The ALT was 40.4 IU/L.

Q: What about the AST (3 h) of the same molecule?
A: The AST was 86 IU/L.

Q: What about the BUN (3 h) of the same molecule?
A: The BUN was 11.4 mg/dL.

Q: What about the CRE (3 h) of the same molecule?
A: Its CRE is 0.2 mg/dL.

Q: What about the Ca (3 h) of the same molecule?
A: Its Ca is 11 mg/dL.

Q: And the Cl (3 h)?
A: Its Cl is 106.2 meq/L.

Q: What about the DBIL (3 h) of the same molecule?
A: The DBIL was 0.02 mg/dL.

Q: And the GLC (3 h)?
A: The GLC was 167.2 mg/dL.

Q: What about the IP (3 h) of the same molecule?
A: The IP was 8.3 mg/dL.

Q: And the K (3 h)?
A: The K was 3.9 meq/L.

Q: And the LDH (3 h)?
A: Its LDH is 67 IU/L.

Q: And the Na (3 h)?
A: Its Na is 142 meq/L.

Q: And the PL (3 h)?
A: Its PL is 130.4 mg/dL.

Q: What about the RALB (3 h) of the same molecule?
A: Its RALB is 2.5 g/dL.

Q: And the TBIL (3 h)?
A: Its TBIL is 0.066 mg/dL.

Q: And the TC (3 h)?
A: The TC was 75.4 mg/dL.

Q: And the TG (3 h)?
A: Its TG is 58.8 mg/dL.

Q: And the TP (3 h)?
A: Its TP is 5.5 g/dL.

Q: What about the gamma-GTP (3 h) of the same molecule?
A: Its gamma-GTP is 1.6 IU/L.

Q: And the TERMINAL_BW (6 h)?
A: The TERMINAL_BW was 212 g.

Q: What about the APTT (6 h) of the same molecule?
A: The APTT was 17 s.

Q: And the Bas (6 h)?
A: The Bas was 0%.

Q: What about the Eos (6 h) of the same molecule?
A: Its Eos is 0.8%.

Q: What about the Fbg (6 h) of the same molecule?
A: Its Fbg is 271.2 mg/dL.

Q: And the Hb (6 h)?
A: The Hb was 13.4 g/dL.

Q: What about the Ht (6 h) of the same molecule?
A: The Ht was 39.9%.

Q: What about the Lym (6 h) of the same molecule?
A: Its Lym is 77.2%.

Q: What about the MCH (6 h) of the same molecule?
A: The MCH was 21.1 pg.

Q: And the MCHC (6 h)?
A: The MCHC was 33.6%.

Q: What about the MCV (6 h) of the same molecule?
A: Its MCV is 62.6 fL.

Q: What about the Mono (6 h) of the same molecule?
A: The Mono was 1.8%.

Q: And the Neu (6 h)?
A: The Neu was 19.6%.

Q: What about the PT (6 h) of the same molecule?
A: Its PT is 13.1 s.

Q: What about the Plat (6 h) of the same molecule?
A: Its Plat is 129.4 x10_4/uL.

Q: And the RBC (6 h)?
A: Its RBC is 637.4 x10_4/ul.

Q: What about the Ret (6 h) of the same molecule?
A: The Ret was 8.6%.

Q: What about the WBC (6 h) of the same molecule?
A: Its WBC is 90.4 x10_2/uL.

Q: And the KIDNEY_L (6 h)?
A: Its KIDNEY_L is 0.9 g.

Q: And the KIDNEY_R (6 h)?
A: Its KIDNEY_R is 0.9 g.

Q: What about the KIDNEY_TOTAL (6 h) of the same molecule?
A: Its KIDNEY_TOTAL is 1.9 g.

Q: And the LIVER (6 h)?
A: The LIVER was 8.8 g.

Q: And the A/G (6 h)?
A: The A/G was 0.8.

Q: What about the ALP (6 h) of the same molecule?
A: The ALP was 1553.8 IU/L.

Q: And the ALT (6 h)?
A: The ALT was 35.6 IU/L.

Q: What about the AST (6 h) of the same molecule?
A: The AST was 68 IU/L.

Q: What about the BUN (6 h) of the same molecule?
A: Its BUN is 8.4 mg/dL.

Q: What about the CRE (6 h) of the same molecule?
A: Its CRE is 0.1 mg/dL.

Q: What about the Ca (6 h) of the same molecule?
A: The Ca was 10.6 mg/dL.

Q: And the Cl (6 h)?
A: The Cl was 105 meq/L.

Q: And the DBIL (6 h)?
A: Its DBIL is 0.014 mg/dL.

Q: And the GLC (6 h)?
A: Its GLC is 182.2 mg/dL.

Q: And the IP (6 h)?
A: The IP was 9.9 mg/dL.

Q: And the K (6 h)?
A: Its K is 3.9 meq/L.

Q: And the LDH (6 h)?
A: Its LDH is 50.8 IU/L.

Q: What about the Na (6 h) of the same molecule?
A: Its Na is 142 meq/L.

Q: What about the PL (6 h) of the same molecule?
A: The PL was 125.8 mg/dL.

Q: What about the RALB (6 h) of the same molecule?
A: The RALB was 2.5 g/dL.

Q: What about the TBIL (6 h) of the same molecule?
A: Its TBIL is 0.064 mg/dL.

Q: And the TC (6 h)?
A: Its TC is 76.2 mg/dL.

Q: What about the TG (6 h) of the same molecule?
A: The TG was 46.8 mg/dL.

Q: What about the TP (6 h) of the same molecule?
A: Its TP is 5.5 g/dL.

Q: And the gamma-GTP (6 h)?
A: The gamma-GTP was 1.6 IU/L.

Q: And the TERMINAL_BW (9 h)?
A: The TERMINAL_BW was 208.7 g.

Q: And the APTT (9 h)?
A: Its APTT is 17.4 s.

Q: And the Bas (9 h)?
A: The Bas was 0%.

Q: What about the Eos (9 h) of the same molecule?
A: The Eos was 1%.

Q: And the Fbg (9 h)?
A: Its Fbg is 281.4 mg/dL.

Q: What about the Hb (9 h) of the same molecule?
A: Its Hb is 13.4 g/dL.

Q: And the Ht (9 h)?
A: The Ht was 39.1%.

Q: What about the Lym (9 h) of the same molecule?
A: Its Lym is 71.8%.

Q: And the MCH (9 h)?
A: The MCH was 21.1 pg.

Q: And the MCHC (9 h)?
A: Its MCHC is 34.2%.

Q: What about the MCV (9 h) of the same molecule?
A: Its MCV is 61.6 fL.

Q: What about the Mono (9 h) of the same molecule?
A: The Mono was 1.8%.

Q: And the Neu (9 h)?
A: The Neu was 24.4%.

Q: What about the PT (9 h) of the same molecule?
A: Its PT is 13.2 s.

Q: And the Plat (9 h)?
A: The Plat was 136.6 x10_4/uL.

Q: And the RBC (9 h)?
A: Its RBC is 635 x10_4/ul.

Q: What about the Ret (9 h) of the same molecule?
A: Its Ret is 8.1%.

Q: What about the WBC (9 h) of the same molecule?
A: Its WBC is 80.2 x10_2/uL.

Q: And the KIDNEY_L (9 h)?
A: Its KIDNEY_L is 0.9 g.

Q: What about the KIDNEY_R (9 h) of the same molecule?
A: The KIDNEY_R was 0.9 g.

Q: What about the KIDNEY_TOTAL (9 h) of the same molecule?
A: Its KIDNEY_TOTAL is 1.8 g.

Q: What about the LIVER (9 h) of the same molecule?
A: Its LIVER is 8.3 g.

Q: And the A/G (9 h)?
A: The A/G was 0.8.

Q: What about the ALP (9 h) of the same molecule?
A: The ALP was 1611.8 IU/L.

Q: And the ALT (9 h)?
A: The ALT was 30.6 IU/L.

Q: And the AST (9 h)?
A: Its AST is 67.6 IU/L.

Q: What about the BUN (9 h) of the same molecule?
A: The BUN was 8.6 mg/dL.

Q: What about the CRE (9 h) of the same molecule?
A: The CRE was 0.1 mg/dL.

Q: What about the Ca (9 h) of the same molecule?
A: Its Ca is 10.6 mg/dL.

Q: And the Cl (9 h)?
A: The Cl was 106.4 meq/L.

Q: What about the DBIL (9 h) of the same molecule?
A: Its DBIL is 0.018 mg/dL.

Q: And the GLC (9 h)?
A: The GLC was 170.2 mg/dL.

Q: What about the IP (9 h) of the same molecule?
A: The IP was 9.7 mg/dL.

Q: And the K (9 h)?
A: The K was 3.7 meq/L.

Q: And the LDH (9 h)?
A: The LDH was 54.8 IU/L.

Q: What about the Na (9 h) of the same molecule?
A: Its Na is 142.2 meq/L.

Q: And the PL (9 h)?
A: The PL was 120.8 mg/dL.

Q: And the RALB (9 h)?
A: Its RALB is 2.5 g/dL.

Q: What about the TBIL (9 h) of the same molecule?
A: The TBIL was 0.068 mg/dL.

Q: What about the TC (9 h) of the same molecule?
A: The TC was 72.6 mg/dL.

Q: And the TG (9 h)?
A: Its TG is 43.8 mg/dL.

Q: What about the TP (9 h) of the same molecule?
A: The TP was 5.6 g/dL.

Q: And the gamma-GTP (9 h)?
A: Its gamma-GTP is 1.8 IU/L.

Q: And the TERMINAL_BW (24 h)?
A: Its TERMINAL_BW is 228.2 g.

Q: And the APTT (24 h)?
A: The APTT was 15.8 s.

Q: And the Bas (24 h)?
A: The Bas was 0.2%.

Q: And the Eos (24 h)?
A: Its Eos is 1%.

Q: What about the Fbg (24 h) of the same molecule?
A: Its Fbg is 302.6 mg/dL.

Q: And the Hb (24 h)?
A: Its Hb is 13 g/dL.

Q: And the Ht (24 h)?
A: Its Ht is 38.7%.

Q: And the Lym (24 h)?
A: The Lym was 78.8%.

Q: What about the MCH (24 h) of the same molecule?
A: The MCH was 20.9 pg.

Q: And the MCHC (24 h)?
A: The MCHC was 33.6%.
